Measured values reported in patent publication EP4775574A1, “FURAN RING-CONTAINING COMPOUND, PHARMACEUTICAL COMPOSITION THEREOF, AND USE THEREOF” (Wuhan Xirui Pharmaceutical Technology Co., Ltd, priority 2023, dated 2025).
Like-named read-outs stand apart in the source and are kept apart here.

Assays:
Assay type in all cases: cell-based
[1] = biological target: T1, Nav1.8 sodium channel (Homo sapiens, UniProt Q9Y5Y9); experiment: Blocking activity against sodium channel 1.8 (Nav1.8), whole-cell patch-clamp, inhibition rate; conditions: CHO cell line stably expressing Nav1.8; patch-clamp; test concentration not given
T1 construct: host or cells: CHO
Procedure: Experimental objective: The effects of the compounds on the current of the voltage-gated sodium channel (NaV) 1.8 subtype were detected by patch-clamp technique • 2. […] When the cells were detached from the bottom of the dish, about 5 mL of preheated complete medium at 37°C was added. The cell suspension was gently pipetted up and down to separate the aggregated cells. The cell suspension was transferred to a sterile centrifuge tube and centrifuged at 1000 rpm for 5 min to collect the cells. […] First, the voltage was stepped from -130 mV to -10 mV in 10 mV increments for 5 s, and then a 0 mV depolarizing pulse was applied to obtain the half-inactivation voltage (Vhalf). The resting state and half-inactivated state of the sodium current were detected by using a double-pulse protocol. First, the first depolarizing pulse (TP1) was applied to 0 mV for 50 ms to detect the sodium current in the resting state. Then, the voltage was adjusted to Vhalf and maintained for 5 s, followed by restoration of the voltage to -120 mV and maintenance for 20 ms, after which the second depolarizing pulse (TP2) was applied to 0 mV for 50 ms to detect the sodium current in the half-inactivated state. Finally, the voltage was restored to the clamping voltage of -120 mV. Data were repeatedly collected every […] to observe the effect of the drug on the peak values of sodium currents in the two different states. Experimental data were collected by the EPC 10 amplifier (HEKA) and stored in the PatchMaster (HEKA) software. • (2) During patch clamp operation, capillary glass tubes were first pulled into recording electrodes using a microelectrode puller, then the electrodes filled with intracellular solution were installed into the microelectrode holder. Under an inverted microscope, the micromanipulator was used to bring the recording electrode into contact with the cell, and negative pressure suction was applied to form a GΩ seal. At this time, fast capacitance compensation was performed, and then negative pressure was continuously applied to rupture the cell membrane and form the whole-cell recording mode. Finally, slow capacitance compensation was performed, and related parameters were recorded. Leak compensation was not applied. • (3) When the sodium current of whole-cell recording became stable, drug administration was started, and each drug concentration was applied for 5 min (or until the current became stable) before the next concentration was tested. The coverslip coated with cells was placed in the recording bath under an inverted microscope, and the blank control external solution and the test compound working solution were perfused through the recording bath in sequence from low concentration to high concentration by gravity, thereby acting on the cells, while a peristaltic pump was used for liquid exchange during recording. The current detected in the external solution without compounds for each cell was used as its own control group. Each concentration was independently tested twice. All electrophysiological experiments were conducted at room temperature.
First, the current after the effect of each drug concentration and the blank control current were normalized, then the inhibition rate corresponding to each drug concentration was calculated, that is, (1-Icompound /Icontrol), and the mean, standard deviation (SD), and standard error (SE) of the inhibition rate for each concentration were calculated, and the data were expressed as mean ± SE.

[2] = biological target: Nav1.1 (Homo sapiens, UniProt P35498); experiment: Sodium channel selectivity test, patch-clamp, Nav1.1; conditions: read-out: Nav1.1 Inhibition rate (%)
Description: (§1) Test Example 3: Selectivity test of the compounds of the present disclosure on sodium channels • 1. Experimental objective: The effects of the compounds on the current of the voltage-gated sodium channel (NaV) subtypes 1.1-1.7 were detected by patch-clamp technique • 2. Experimental materials and instruments • 2.1 Cell lines: CHO/HEK293 cell lines stably expressing Nav1.1-1.7 sodium channels, constructed in-house by the laboratory of Beijing ICE Bioscience Co., Ltd., (Reference: Jarvis MF, Honore P, Shieh CC, Chapman M, Joshi S, Zhang XF, Kort M, Carroll W, Marron B, Atkinson R, Thomas J, Liu D, Krambis M, Liu Y, McGaraughty S, Chu K, Roeloffs R, Zhong C, Mikusa JP, Hernandez G, Gauvin D, Wade C, Zhu C, Pai M, Scanio M, Shi L, Drizin I, Gregg R, Matulenko M, Hakeem A, Gross M, Johnson M, Marsh K, Wagoner PK, Sullivan JP, Faltynek CR, Krafte DS. A-803467, a potent and selective Nav1.8 sodium channel blocker, attenuates neuropathic and inflammatory pain in the rat. Proc Natl Acad Sci U S A. 2007 May 15;104(20):8520-5. doi: 10.1073/pnas.0611364104. Epub 2007 May 2. PMID: 17483457; PMCID: PMC1895982.), gene information Nav1.1: NM_006920; Nav1.2: NM_001040142; Nav1.3: NM_006922; Nav1.4: NM_000334; Nav1.5: NM198056; Nav1.6: NM014191; Nav1.7: […]. • 2.2 Compounds: Dissolved in DMSO, with sample concentration prepared at 30 µM. • 3. Experimental methods • 3.1 Cell culture • (1) Maintenance medium: CHO cells were cultured in HAM'S/F-12 medium containing 10% fetal bovine serum, 100 µg/mL Zeocin, and 10 µg/mL Blasticidin, under conditions of 37°C incubation temperature and 5% carbon dioxide concentration. HEK-293 cells were cultured in DMEM medium containing 10% fetal bovine serum and 800 µg/mL G418; the culture temperature was 37°C, and the carbon dioxide concentration was 5%. • (2) Cell passage: The old medium was removed, and the cells were washed once with PBS, then 1 mL of 0.25%-Trypsin-EDTA solution was added and incubated at 37°C for approximately 1.5 min. When the cells were detached from the bottom of the dish, about 5 mL of preheated complete medium at 37°C was added. […]

[3] = biological target: Nav1.5 (Homo sapiens, UniProt Q14524); experiment: Sodium channel selectivity test, patch-clamp, Nav1.5; conditions: read-out: Nav1.5 Inhibition rate (%)
Nav1.5, sequence (Q14524 whole entry): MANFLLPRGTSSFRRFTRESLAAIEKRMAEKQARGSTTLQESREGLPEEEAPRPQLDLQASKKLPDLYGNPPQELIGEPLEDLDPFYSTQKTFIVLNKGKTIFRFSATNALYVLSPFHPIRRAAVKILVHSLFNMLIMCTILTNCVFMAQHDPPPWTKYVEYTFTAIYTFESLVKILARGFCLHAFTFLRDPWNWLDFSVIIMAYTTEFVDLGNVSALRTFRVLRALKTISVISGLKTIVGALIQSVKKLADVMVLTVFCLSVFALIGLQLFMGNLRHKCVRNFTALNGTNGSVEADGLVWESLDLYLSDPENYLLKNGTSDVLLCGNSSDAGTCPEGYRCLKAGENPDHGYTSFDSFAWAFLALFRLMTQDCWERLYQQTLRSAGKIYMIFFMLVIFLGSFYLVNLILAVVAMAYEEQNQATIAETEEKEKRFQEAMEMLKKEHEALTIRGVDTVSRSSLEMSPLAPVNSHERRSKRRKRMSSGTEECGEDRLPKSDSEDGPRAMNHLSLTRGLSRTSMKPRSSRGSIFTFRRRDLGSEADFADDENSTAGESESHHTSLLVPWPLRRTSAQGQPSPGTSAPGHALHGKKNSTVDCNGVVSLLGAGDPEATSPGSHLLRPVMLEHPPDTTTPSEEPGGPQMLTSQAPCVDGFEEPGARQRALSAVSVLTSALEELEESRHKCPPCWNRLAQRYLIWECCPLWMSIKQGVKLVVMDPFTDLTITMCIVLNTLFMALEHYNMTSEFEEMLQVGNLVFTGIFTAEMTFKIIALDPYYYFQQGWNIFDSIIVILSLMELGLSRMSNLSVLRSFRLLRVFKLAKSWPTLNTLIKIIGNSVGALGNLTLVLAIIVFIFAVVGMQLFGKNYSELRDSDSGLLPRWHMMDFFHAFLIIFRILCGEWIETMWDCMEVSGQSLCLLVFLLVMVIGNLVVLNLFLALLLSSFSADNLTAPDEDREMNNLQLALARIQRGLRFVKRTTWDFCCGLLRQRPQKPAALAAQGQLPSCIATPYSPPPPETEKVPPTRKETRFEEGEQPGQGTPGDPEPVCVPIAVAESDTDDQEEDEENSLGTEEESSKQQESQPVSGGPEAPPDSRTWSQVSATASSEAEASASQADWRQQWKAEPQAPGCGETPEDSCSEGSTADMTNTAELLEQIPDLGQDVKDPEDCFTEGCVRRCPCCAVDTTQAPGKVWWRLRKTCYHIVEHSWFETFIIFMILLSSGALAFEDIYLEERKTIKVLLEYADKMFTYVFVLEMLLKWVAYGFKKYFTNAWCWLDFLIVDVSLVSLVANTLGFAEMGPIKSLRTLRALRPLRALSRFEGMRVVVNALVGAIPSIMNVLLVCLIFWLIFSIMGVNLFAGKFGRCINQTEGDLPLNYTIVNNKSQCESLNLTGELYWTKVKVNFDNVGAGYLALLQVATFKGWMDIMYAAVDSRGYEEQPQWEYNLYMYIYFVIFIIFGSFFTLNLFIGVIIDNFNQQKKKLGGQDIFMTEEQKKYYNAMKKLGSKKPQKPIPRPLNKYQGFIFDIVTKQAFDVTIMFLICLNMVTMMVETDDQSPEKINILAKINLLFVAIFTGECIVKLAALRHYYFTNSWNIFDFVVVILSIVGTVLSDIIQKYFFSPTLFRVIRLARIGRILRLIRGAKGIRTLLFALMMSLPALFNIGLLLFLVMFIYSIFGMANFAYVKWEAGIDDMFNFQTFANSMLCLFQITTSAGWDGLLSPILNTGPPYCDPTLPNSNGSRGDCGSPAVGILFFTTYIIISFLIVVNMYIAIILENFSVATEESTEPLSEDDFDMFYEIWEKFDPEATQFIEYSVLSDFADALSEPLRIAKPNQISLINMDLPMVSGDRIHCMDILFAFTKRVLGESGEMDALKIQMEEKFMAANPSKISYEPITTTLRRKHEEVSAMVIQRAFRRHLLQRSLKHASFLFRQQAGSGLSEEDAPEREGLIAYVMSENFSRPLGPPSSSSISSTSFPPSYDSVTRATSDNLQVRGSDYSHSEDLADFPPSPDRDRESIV
Description: as §1

[4] = biological target: Nav1.6 (Homo sapiens, UniProt Q9UQD0); experiment: Sodium channel selectivity test, patch-clamp, Nav1.6; conditions: read-out: Nav1.6 Inhibition rate (%)
Nav1.6, sequence (Q9UQD0 whole entry): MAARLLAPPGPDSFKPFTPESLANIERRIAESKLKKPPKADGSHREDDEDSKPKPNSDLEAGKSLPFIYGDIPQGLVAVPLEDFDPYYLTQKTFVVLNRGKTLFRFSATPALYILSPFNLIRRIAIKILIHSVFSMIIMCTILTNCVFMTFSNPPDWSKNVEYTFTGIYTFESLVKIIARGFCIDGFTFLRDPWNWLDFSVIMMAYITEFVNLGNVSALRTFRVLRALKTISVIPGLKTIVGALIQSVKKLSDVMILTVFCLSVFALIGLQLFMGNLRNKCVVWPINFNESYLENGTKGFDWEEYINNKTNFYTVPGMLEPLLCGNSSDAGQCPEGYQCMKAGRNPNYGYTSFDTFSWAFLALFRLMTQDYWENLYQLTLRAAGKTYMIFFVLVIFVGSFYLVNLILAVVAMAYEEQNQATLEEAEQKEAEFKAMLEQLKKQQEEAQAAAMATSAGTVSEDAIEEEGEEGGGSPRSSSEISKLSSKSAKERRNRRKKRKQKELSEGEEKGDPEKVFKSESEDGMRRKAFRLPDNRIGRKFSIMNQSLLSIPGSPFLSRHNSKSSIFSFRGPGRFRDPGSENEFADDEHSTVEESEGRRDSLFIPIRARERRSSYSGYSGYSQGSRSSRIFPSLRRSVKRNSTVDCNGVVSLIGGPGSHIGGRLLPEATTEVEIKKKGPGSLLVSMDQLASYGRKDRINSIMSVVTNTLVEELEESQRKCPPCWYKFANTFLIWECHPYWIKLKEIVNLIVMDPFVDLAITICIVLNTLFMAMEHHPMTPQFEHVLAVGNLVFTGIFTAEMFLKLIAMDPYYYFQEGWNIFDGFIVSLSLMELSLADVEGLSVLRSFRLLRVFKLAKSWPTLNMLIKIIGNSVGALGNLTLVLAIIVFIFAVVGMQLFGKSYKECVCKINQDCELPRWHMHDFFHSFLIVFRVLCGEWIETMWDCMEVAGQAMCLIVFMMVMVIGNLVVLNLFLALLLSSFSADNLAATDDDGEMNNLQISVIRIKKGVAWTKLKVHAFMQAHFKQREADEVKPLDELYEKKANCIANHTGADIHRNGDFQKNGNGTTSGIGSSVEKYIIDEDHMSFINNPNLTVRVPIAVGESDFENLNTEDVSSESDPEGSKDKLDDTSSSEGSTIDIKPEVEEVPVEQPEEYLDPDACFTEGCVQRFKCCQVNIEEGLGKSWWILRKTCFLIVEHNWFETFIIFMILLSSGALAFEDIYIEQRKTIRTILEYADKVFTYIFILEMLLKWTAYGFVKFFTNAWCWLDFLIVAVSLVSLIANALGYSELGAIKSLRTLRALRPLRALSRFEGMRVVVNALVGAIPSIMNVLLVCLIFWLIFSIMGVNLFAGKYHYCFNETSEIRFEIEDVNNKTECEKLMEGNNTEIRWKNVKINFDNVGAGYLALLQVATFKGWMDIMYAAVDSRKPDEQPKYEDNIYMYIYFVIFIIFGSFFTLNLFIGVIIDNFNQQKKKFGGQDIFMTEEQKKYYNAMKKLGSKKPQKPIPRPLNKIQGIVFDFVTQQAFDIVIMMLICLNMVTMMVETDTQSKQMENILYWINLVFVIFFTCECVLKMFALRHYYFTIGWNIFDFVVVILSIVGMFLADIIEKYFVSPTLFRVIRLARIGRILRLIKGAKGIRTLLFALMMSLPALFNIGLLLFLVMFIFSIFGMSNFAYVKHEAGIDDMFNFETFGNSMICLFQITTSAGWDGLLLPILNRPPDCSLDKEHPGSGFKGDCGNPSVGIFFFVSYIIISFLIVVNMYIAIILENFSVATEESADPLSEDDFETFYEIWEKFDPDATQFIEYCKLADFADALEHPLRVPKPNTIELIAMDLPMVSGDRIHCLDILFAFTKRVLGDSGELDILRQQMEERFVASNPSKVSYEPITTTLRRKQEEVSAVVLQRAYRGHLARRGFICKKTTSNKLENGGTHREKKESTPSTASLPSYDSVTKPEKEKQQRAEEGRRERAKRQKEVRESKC
Description: as §1

| Compound | Inhibition rate (%) [1] [%] | inhibition at 30 µM [2] [%] | inhibition at 30 µM ([3]; human) [%] | inhibition at 30 µM [4] [%] | inhibition at 30 µM ([3]; cho/hek293 cells) [%] | inhibition at 30 µM ([3]; human, cho/hek293 cells) [%] |
| --- | --- | --- | --- | --- | --- | --- |
| COc1c([C@H]2[C@H](C(=O)Nc3ccnc(C(N)=O)c3)O[C@@](C)(C(F)(F)F)[C@H]2C)ccc(F)c1F [Reference compound, reference compound] | 94.49 | 57.7 | 72.2 | 42.9 |  |  |
| C[C@H]1[C@@H](c2ccc(F)c(F)c2OC2COC2)[C@H](C(=O)Nc2ccc(F)c(C(=N)NO)c2)O[C@@]1(C)C(F)(F)F [Example 11] | 87.35 | 1.96 |  | 19.5 | 9.11 |  |
| COCCOc1c([C@H]2[C@H](C(=O)Nc3ccc(F)c(C(=N)NO)c3)O[C@@](C)(C(F)(F)F)[C@H]2C)ccc(F)c1F [Example 10] | 99.65 | 28.4 |  | 36 |  | 51.7 |
